Reference: US20250195521A1 (Revolution Medicines, Inc., priority 2020, published 2025)
Where two headings read alike, the source gives them in different places.

What was measured:
Type in all cases: biochemical
[1] = molecular target: KRAS G12S binding to BRAF RBD (Homo sapiens (Human), UniProt P01116+P62937, G12S); assay: Ras-Raf disruption/FRET/MOA assay, KRAS G12S
Summary of the method: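 TR-FRET ratio drop relative to DMSO wells marks disruption of the Ras–RAF complex, reported as IC50. Compounds promote a Ras(nucleotide)–cyclophilin A ternary complex that blocks BRAF RBD binding; dosing was 10 points, 3-fold, top 30 μM final, 3 h at 25° C before detection.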

[2] = molecular target: KRAS G12V binding to BRAF RBD (Homo sapiens (Human), UniProt P01116+P62937, G12V); assay: Ras-Raf disruption/FRET/MOA assay, KRAS G12V
Description: (§1) Note—The following protocol describes a procedure for monitoring disruption of K-Ras G12C(GMP-PNP) binding to BRAF^RBD by a compound of the invention. This protocol may also be executed substituting other Ras proteins or nucleotides.
(§2) The purpose of this biochemical assay was to measure the ability of test compounds to facilitate ternary complex formation between a nucleotide-loaded K-Ras isoform and Cyclophilin A; the resulting ternary complex disrupts binding to a BRAF^RBD construct, inhibiting K-Ras signaling through a RAF effector. Data is reported as IC50 values.
(§3) Compound was present in plate wells as a 10-point 3-fold dilution series starting at a final concentration of 30 μM. After incubation at 25° C. for 3 hours, a mixture of Anti-His Eu—W1024 and anti-GST allophycocyanin was then added to assay sample wells at final concentrations of 10 nM and 50 nM, respectively, and the reaction incubated for an additional 1.5 hours. […] Compounds that facilitate disruption of a K-Ras: RAF complex were identified as those eliciting a decrease in the TR-FRET ratio relative to DMSO control wells.

[3] = molecular target: KRAS G13C binding to BRAF RBD (Homo sapiens (Human), UniProt P01116+P62937, G13C); assay: Ras-Raf disruption/FRET/MOA assay, KRAS G13C
Description: Disruption of B-Raf Ras-binding Domain (BRAF^RBD) Interaction with K-Ras by Compounds of the Invention (also called a FRET assay or an MOA assay)
as §1, §2
as §3, with “In assay buffer containing 25 mM HEPES pH 7.3, 0.002% Tween20, 0.1% BSA, 100 mM NaCl and 5 mM MgCl2, tagless Cyclophilin A, His6-K-Ras-GMPPNP, and GST-BRAF^RBD were combined in a 384-well assay plate at final concentrations of 25 μM, 12.5 nM and 50 nM, respectively. Compound was” for “Compound was”

Chain of KRAS G12S binding to BRAF RBD (P01116 other isoform, or with tags, fused parts or gaps G12S): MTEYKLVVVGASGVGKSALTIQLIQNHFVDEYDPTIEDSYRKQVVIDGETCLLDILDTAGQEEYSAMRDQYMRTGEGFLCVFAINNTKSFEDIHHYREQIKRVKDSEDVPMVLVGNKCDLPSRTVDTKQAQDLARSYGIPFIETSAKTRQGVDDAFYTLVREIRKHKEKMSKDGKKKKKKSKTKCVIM
Chain of KRAS G12S binding to BRAF RBD (P62937 whole entry): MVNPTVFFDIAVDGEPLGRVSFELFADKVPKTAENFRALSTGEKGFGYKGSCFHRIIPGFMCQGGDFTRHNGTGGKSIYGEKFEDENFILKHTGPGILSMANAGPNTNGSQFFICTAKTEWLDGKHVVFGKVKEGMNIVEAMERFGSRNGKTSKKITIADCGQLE
Chain of KRAS G12V binding to BRAF RBD (P01116 other isoform, or with tags, fused parts or gaps G12V): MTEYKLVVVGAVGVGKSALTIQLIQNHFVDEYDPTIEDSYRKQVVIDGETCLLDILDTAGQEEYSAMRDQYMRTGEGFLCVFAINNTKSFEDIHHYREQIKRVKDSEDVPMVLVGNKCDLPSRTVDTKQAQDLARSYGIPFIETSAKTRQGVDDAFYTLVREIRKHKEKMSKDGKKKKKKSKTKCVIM
Chain of KRAS G12V binding to BRAF RBD (P62937 whole entry): as the sequence (P62937 whole entry) above
Chain of KRAS G13C binding to BRAF RBD (P01116 other isoform, or with tags, fused parts or gaps G13C): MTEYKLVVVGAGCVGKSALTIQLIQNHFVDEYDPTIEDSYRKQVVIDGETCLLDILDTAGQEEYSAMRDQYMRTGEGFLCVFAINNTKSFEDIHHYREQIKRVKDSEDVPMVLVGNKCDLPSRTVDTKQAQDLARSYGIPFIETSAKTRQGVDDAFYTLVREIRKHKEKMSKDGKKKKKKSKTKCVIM
Chain of KRAS G13C binding to BRAF RBD (P62937 whole entry, the tested form may be a part): as the sequence (P62937 whole entry) above

Row | Compound | IC50 [1] | IC50 [2] | IC50 [3] | IC50 ([2]; read-out: KRAS G12V FRET IC50)
1 | CCn1c(-c2cccnc2[C@H](C)OC)c2c3cc(ccc31)-c1cc(O)cc(c1)C[C@H](NC(=O)C1CCC3C1C3(F)F)C(=O)N1CCC[C@H](N1)C(=O)OCC(C)(C)C2 (some centres unmarked) [Compound A181] | 10 to 100 nM |  |  | 
2 | CCn1c(-c2cccnc2[C@H](C)OC)c2c3cc(ccc31)-c1csc(n1)C[C@H](NC(=O)[C@H](C(C)C)N(C)C(=O)C1COC1)C(=O)N1CCC[C@H](N1)C(=O)OCC(C)(C)C2 [Compound A245] |  | 10 to 100 nM |  | 
3 | CCn1c(-c2cccnc2[C@H](C)OC)c2c3cc(ccc31)-c1cc(O)cc(c1)C[C@H](NC(=O)[C@H](C(C)C)N(C)C(=O)C1CC(=O)N(C3CC3)C1)C(=O)N1CCC[C@H](N1)C(=O)OCC(C)(C)C2 (some centres unmarked) [Compound A252] |  |  | < 10 nM | 
4 | CCn1c(-c2cnccc2COC)c2c3cc(ccc31)-c1cc(O)cc(c1)C[C@H](NC(=O)[C@H](C(C)C)N(C)C(=O)N1CCNCC1)C(=O)N1CCC[C@H](N1)C(=O)OCC(C)(C)C2 [Compound A255] | 10 to 100 nM |  | < 10 nM | 
5 | CCn1c(-c2cccnc2[C@H](C)OC)c2c3cc(ccc31)-c1cc(O)cc(c1)C[C@H](NC(=O)[C@@H](C(C)C)N(C)C(C)=O)C(=O)N1CCC[C@H](N1)C(=O)OCC(C)(C)C2 [Compound A256] | 10 to 100 nM |  |  | 
6 | CCn1c(-c2cccnc2[C@H](C)OC)c2c3cc(ccc31)-c1csc(n1)C[C@H](NC(=O)[C@H](C(C)C)N(C)C(=O)N1C[C@@H](C)N(C)C[C@@H]1C)C(=O)N1CCC[C@H](N1)C(=O)OCC(C)(C)C2 [Compound A292] | 10 to 100 nM |  | < 10 nM | 10 to 100 nM
7 | CCn1c(-c2cccnc2[C@H](C)OC)c2c3cc(ccc31)-c1csc(n1)[C@@H](OC)[C@H](NC(=O)[C@H](C(C)C)N(C)C(=O)N(C)C)C(=O)N1CCC[C@H](N1)C(=O)OCC(C)(C)C2 [Compound A598, (2S)—N-((6^3S,3S,4S,Z)-1^1-ethyl-3-methoxy-1^2-(2-((S)-1-methoxyethyl)pyridin-3-yl)-10,10-dimethyl-5,7-dioxo-6^1,6^2,6^3,6^4,6^5,6^6-hexahydro-1^1H-8-oxa-2 (4,2)-thiazola-1 (5,3)-indola-6 (1,3)-pyridazinacycloundecaphane-4-yl)-3-methyl-2-(1,3,3-trimethylureido) butanamide] | 10 to 100 nM |  |  | 

Other lines, results leading:

Row | IC50 [1] | IC50 [2] | IC50 [3] | IC50 ([2]; read-out: KRAS G12V FRET IC50) | Compound
8 | 10 to 100 nM |  |  | 10 to 100 nM | CCn1c(-c2cccnc2[C@H](C)OC)c2c3cc(ccc31)-c1csc(n1)C[C@H](NC(=O)[C@H](C(C)C)N(C)C(=O)N1CC(N3CCC3)C1)C(=O)N1CCC[C@H](N1)C(=O)OCC(C)(C)C2 [Compound A295]
9 | 10 to 100 nM |  |  | 10 to 100 nM | CCn1c(-c2cccnc2[C@H](C)OC)c2c3cc(ccc31)-c1csc(n1)C[C@H](NC(=O)[C@H](C(C)C)N(C)C(=O)N1C[C@H](C)N(C)C[C@H]1C)C(=O)N1CCC[C@H](N1)C(=O)OCC(C)(C)C2 [Compound A300]
10 | 10 to 100 nM |  | < 10 nM | 10 to 100 nM | CCn1c(-c2cccnc2[C@H](C)OC)c2c3cc(ccc31)-c1csc(n1)C[C@H](NC(=O)[C@H](C(C)C)N(C)C(=O)N1CC(N3CCOCC3)C1)C(=O)N1CCC[C@H](N1)C(=O)OCC(C)(C)C2 [Compound A338]
11 | 10 to 100 nM |  |  |  | CCn1c(-c2cccnc2[C@H](C)OC)c2c3cc(ccc31)-c1csc(n1)C[C@H](NC(=O)C1CC1)C(=O)N1CCC[C@H](N1)C(=O)OCC(C)(C)C2 [Compound A367]
12 | 10 to 100 nM |  |  | 10 to 100 nM | CCn1c(-c2cccnc2[C@H](C)OC)c2c3cc(ccc31)-c1csc(n1)C[C@H](NC(=O)[C@H](C(C)C)N(C)C(=O)N1CC[C@]3(CCNC3=O)C1)C(=O)N1CCC[C@H](N1)C(=O)OCC(C)(C)C2 [Compound A479]
13 | 10 to 100 nM |  |  | 10 to 100 nM | CCn1c(-c2cccnc2[C@H](C)OC)c2c3cc(ccc31)-c1csc(n1)C[C@H](NC(=O)[C@H](C(C)C)N(C)C(=O)N1CCC[C@H](N(C)C)CC1)C(=O)N1CCC[C@H](N1)C(=O)OCC(C)(C)C2 [Compound A493]
14 | 10 to 100 nM |  |  | 10 to 100 nM | CCn1c(-c2cccnc2[C@H](C)OC)c2c3cc(ccc31)-c1csc(n1)C[C@H](NC(=O)[C@H](C(C)C)N(C)C(=O)N(C)C1(C)COC1)C(=O)N1CCC[C@H](N1)C(=O)OCC(C)(C)C2 [Compound A527]
15 | 10 to 100 nM |  |  | 10 to 100 nM | CCn1c(-c2cccnc2[C@H](C)OC)c2c3cc(ccc31)-c1csc(n1)C[C@H](NC(=O)[C@H](C(C)C)N(C)C(=O)N1CCN3C(=O)CN(C)C[C@H]3C1)C(=O)N1CCC[C@H](N1)C(=O)OCC(C)(C)C2 [Compound A537]
16 | 10 to 100 nM |  |  |  | CCn1c(-c2cccnc2[C@H](C)OC)c2c3cc(ccc31)-c1csc(n1)C[C@H](NC(=O)[C@H](C(C)C)N(C)C(=O)N1CCN(C(=O)[C@@H]3CCCN3C)CC1)C(=O)N1CCC[C@H](N1)C(=O)OCC(C)(C)C2 [Compound A596]
17 | 10 to 100 nM |  |  | 10 to 100 nM | CCn1c(-c2cccnc2[C@H](C)OC)c2c3cc(ccc31)-c1csc(n1)C[C@H](NC(=O)[C@H](C(C)C)N(C)C(=O)N1CC3(CCN(C)C3)C1)C(=O)N1CCC[C@H](N1)C(=O)OCC(C)(C)C2 [Compound A602]
